Holding throughout (type): biochemical
Experiment [1] deals with human recombinant butyrylcholinesterase (hBuChE) (Homo sapiens, UniProt P06276). The experiment in a line: Inhibition of hBuChE, Ellman method. For orientation: DTNB colorimetry detects thiols as they appear.
The target of experiment [2] is T1, human recombinant MAO B (Homo sapiens, UniProt P27338).
T1 sequence (P27338 1-520): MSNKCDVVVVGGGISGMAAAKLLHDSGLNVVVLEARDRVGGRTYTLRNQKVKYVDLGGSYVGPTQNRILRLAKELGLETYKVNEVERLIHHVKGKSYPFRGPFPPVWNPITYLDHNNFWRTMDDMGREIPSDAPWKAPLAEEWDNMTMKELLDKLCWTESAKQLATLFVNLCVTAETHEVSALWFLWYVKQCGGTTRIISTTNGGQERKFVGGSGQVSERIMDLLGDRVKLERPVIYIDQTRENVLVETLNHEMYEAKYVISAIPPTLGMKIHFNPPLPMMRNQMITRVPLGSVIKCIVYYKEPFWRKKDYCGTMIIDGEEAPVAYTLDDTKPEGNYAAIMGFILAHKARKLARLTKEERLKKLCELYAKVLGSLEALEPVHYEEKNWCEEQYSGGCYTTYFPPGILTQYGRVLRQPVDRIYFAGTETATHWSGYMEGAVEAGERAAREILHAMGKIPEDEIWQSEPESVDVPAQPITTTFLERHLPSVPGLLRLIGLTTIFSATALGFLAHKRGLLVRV
Kind of experiment: Test of reversibility of inhibition of human recombinant MAO B.

The target of experiment [3] is T1, human recombinant MAO B. Kind of experiment: Time-dependent inhibition of human recombinant MAO B. To be noted: pre-incubation times 15–60 minutes.
The target of experiment [4] is human recombinant acetylcholinesterase (hAChE) (Homo sapiens, UniProt P22303). The experiment in a line: Inhibition of hAChE, Ellman method.
Sequence of human recombinant acetylcholinesterase (hAChE) (P22303 32-614): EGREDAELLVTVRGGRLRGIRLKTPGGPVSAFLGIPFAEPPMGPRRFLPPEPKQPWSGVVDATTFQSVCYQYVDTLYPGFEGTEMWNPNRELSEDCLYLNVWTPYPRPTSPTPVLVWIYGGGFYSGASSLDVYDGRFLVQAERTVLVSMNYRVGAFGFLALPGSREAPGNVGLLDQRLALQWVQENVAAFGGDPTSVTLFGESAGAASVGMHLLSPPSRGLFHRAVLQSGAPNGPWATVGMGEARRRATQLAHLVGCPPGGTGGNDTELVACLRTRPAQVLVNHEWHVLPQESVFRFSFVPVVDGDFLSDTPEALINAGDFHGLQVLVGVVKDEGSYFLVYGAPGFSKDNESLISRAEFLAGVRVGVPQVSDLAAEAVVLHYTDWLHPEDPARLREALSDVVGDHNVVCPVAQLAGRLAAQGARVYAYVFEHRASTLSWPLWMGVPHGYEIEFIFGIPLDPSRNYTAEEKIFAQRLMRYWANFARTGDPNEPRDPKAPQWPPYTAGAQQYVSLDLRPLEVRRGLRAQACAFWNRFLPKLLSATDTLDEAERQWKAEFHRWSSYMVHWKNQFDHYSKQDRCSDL

In general, IC50 refers to the point on the concentration scale where inhibition reaches its midpoint. One may read the inhibition as the change of the read-out against control, counted positive when it falls.

Sequence of human recombinant butyrylcholinesterase (hBuChE) (P06276 29-602): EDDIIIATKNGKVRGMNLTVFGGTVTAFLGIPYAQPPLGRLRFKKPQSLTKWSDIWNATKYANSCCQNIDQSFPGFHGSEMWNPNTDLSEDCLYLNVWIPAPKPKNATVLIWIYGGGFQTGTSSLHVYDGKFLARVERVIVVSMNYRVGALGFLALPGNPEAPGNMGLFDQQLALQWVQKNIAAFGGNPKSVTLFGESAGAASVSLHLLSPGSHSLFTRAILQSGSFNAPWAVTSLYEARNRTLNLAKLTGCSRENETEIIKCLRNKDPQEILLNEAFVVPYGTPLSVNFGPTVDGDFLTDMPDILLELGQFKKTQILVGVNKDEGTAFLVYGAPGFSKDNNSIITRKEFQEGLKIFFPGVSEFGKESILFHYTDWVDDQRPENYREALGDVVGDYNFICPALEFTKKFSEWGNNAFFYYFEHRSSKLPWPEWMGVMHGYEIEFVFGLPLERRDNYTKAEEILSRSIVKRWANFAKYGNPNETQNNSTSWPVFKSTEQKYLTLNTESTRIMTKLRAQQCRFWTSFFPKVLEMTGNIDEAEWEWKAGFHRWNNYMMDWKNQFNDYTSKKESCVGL

Regarding `C#CCN(C)c1nc(NCCCCC2CCN(Cc3ccccc3)CC2)c(C#N)c(-c2ccccc2)c1C#N` [DPH9], in experiment [1], the IC50 amounted to 1190 nM.
On the same count and under the same terms, then `C#CCNc1nc(NCCCCC2CCN(Cc3ccccc3)CC2)c(C#N)c(-c2ccccc2)c1C#N` [DPH12], with 770 ± 140 nM.
Turning to `C#CCN(C)c1nc(NCCCCC2CCN(Cc3ccccc3)CC2)c(C#N)cc1C#N` [DPH14], the IC50 in experiment [1] came to 835 ± 139 nM; in experiment [4], 13.1 ± 2.1 nM. Further, on human recombinant MAO B [2] (50 μM, after 100-fold dilution with 1 mM tyramine), the “reversibility of hMAO B inhibition” value is given as “irreversible”. At human recombinant MAO B [2] (read-out: initial MAO B inhibition), the inhibition at 50 µM stood at 55%. Also, the “time dependence of hMAO B inhibition” value at human recombinant MAO B [3] was “time-dependent inhibition”.
For the molecule `C#CCNc1nc(NCCCCC2CCN(Cc3ccccc3)CC2)c(C#N)cc1C#N` [DPH16], the half-inhibitory concentration (IC50) in experiment [1] was 790 ± 110 nM. For the same molecule, the “fold more potent than donepezil for hBuChE” value in experiment [1] (vs donepezil) is given as 9.2 fold. In addition, in experiment [4] (vs donepezil), the “fold more active than donepezil for the inhibition of hAChE” value was 3.1 fold.
